Target: rRNA adenine N-6-methyltransferase ErmC (Staphylococcus aureus)
Experiment: Inhibition of Staphylococcus aureus ErmC methyltransferase

IC50: 450 nM
Structure (SMILES): CC(C)c1ccc(NC(=S)N/N=C/c2cc(Cl)cc(Cl)c2O)cc1

Reference: BindingDB's records for PubMed 37122541 (Emory University, 2023)
